Source: US4298525A, “Bis-indole-alkaloid” (Richter Gedeon Vegyeszeti Gyar RT, priority 1979, dated 1981)
Read-outs that look alike come from different tables or passages of the source.

Key:
[1] = in vivo
[2] = system: Ehrlich ascites carcinoma; assay: effect on Ehrlich ascites carcinoma; format: in vivo, outbred Swiss mice; details: for Mean duration of life expressed in % of treated*/control: second part of table, maximum 400%
Description: (§1) Transplantation was carried out into outbred Swiss mice at a level of 5×10^6 ascites tumor cells. Administration of RGH-4451 was started 24 hours after transplantation.

[3] = human therapy; Rohn, R. et al.; cited from earlier work
[4] = animals; cited from earlier work
[5] = paralytic symptoms at sublethal doses; format: in vivo; details: even at sublethal doses; by contrast with vincristine
[6] = overall tumor-growth inhibition and prolongation of life (summary of the tests); format: in vivo
Description: From the tests described hereinabove it can be concluded that 1.0 to 10.0 mg./kg. daily doses or 20 mg./kg. single doses of RGH-4451 have a significant tumor-growth inhibition effect and prolong the duration of life.

[7] = therapeutic effect, MTD/min eff. D; details: in vivo
P 388 tumor cells = assay: inhibition of tumor growth in tissue culture, P 388; format: cell-based, mice; details: for inhibition at 0.1 µg/mL: Mus musculus, P388
Description: The inhibition of tumor growth was initially studied in a tissue culture. A 20 mg./ml. solution of RGH-4451 in a Fischer medium was prepared and subsequently diluted to the desired concentration. The number of cells in the P 388 cultures was determined 24 and 48 hours after treatment.
The inhibition was 43% after 24 hours and 89% after 48 hours. In in vitro tests the compound was 100-times less toxic than vincristine and 4-times less toxic than N-desmethyl-N-formyl-leurosine.

S 180 sc. carcinoma = assay: effect on S 180 sc. carcinoma; format: in vivo, Swiss mice; details: even at doses as high as 16 mg/kg i.p. daily
Description: S 180 sc. tumor tissues were transplanted into Swiss mice subcutaneously. Treatment was started 24 hours after transplantation. RGH-4451 was administered once a day in a dose of 2, 4, 8 and 16 mg./kg., respectively intraperitoneally. The tumor growth inhibition was evaluated on the 11th day on the basis of the weight of tumors. The change of the weight of spleen was also monitored.

[8] = acute toxicity on mice (LD50, i.p.); format: in vivo
Description: The acute toxicity of RGH-4451 was tested on mice.
The lethal dose killed the animals on the 2nd to 5th day.

NK/Ly ascites lymphoma = assay: effect on NK/Ly ascites lymphoma; format: in vivo, outbred Swiss mice
Description: Tests were carried out analogously with the Ehrlich ascites test.
as §1

P 388 leukemia = assay: effect on P 388 leukemia tumors of mice; format: in vivo, BDF1 hybrid mice
Text: 10^6 P 388 leukemia cells were transplanted into BDF1 hybrid mice intraperitoneally. Administration of RGH-4451 was started the day following the transplantation.

Guerin sc. carcinoma = assay: effect on Guerin sc. carcinoma; format: in vivo, Wistar rats; details: for Mortality until the 22nd day/number of animals / Inhibition / Weight of tumor, treated: six subsequent days; for Inhibition / Weight of tumor, treated: 22nd day
Description: Tumors were transplanted into Wistar rats subcutaneously. Administration of RGH-4451 was started on the day following the transplantation and the compound was administered six subsequent days intraperitoneally. The inhibition of tumor growth was evaluated on the 22nd day.

[9] = 3.2 mg/kg i.p., 9 treatments, every day
[10] = 3.2 mg/kg i.p., 9 treatments, every day, control 12.3 days
[11] = 5.0 mg/kg i.p., 9 treatments, every day
[12] = 5.0 mg/kg i.p., 9 treatments, every day, control 13.2 days
[13] = 6.4 mg/kg i.p., 9 treatments, every day
[14] = 6.4 mg/kg i.p., 9 treatments, every day, control 12.3 days
[15] = 10 mg/kg i.p., 5 treatments, every second day
[16] = 10 mg/kg i.p., 5 treatments, every second day, control 10.5 days
[17] = 20 mg/kg i.p., 1 treatment, control 10.5 days
[18] = 20 mg/kg i.p., 6 treatments, every day
[19] = 20 mg/kg i.p., 6 treatments, every day, control 13.2 days
[20] = 2.0 mg/kg i.p., 9 treatments, every day
[21] = 4.0 mg/kg i.p., 9 treatments, every day
[22] = 6.0 mg/kg i.p., 9 treatments, every day

Structure (SMILES): CCC12CN3CCc4c([nH]c5ccccc45)C(C(=O)OC)(c4cc5c(cc4OC)N(C=O)C4C(O)(C(=O)OC)C(OC(C)=O)C6(CC)C=CCN7CCC54C76)CC(C3)C1O2 (centres unmarked) [N-desmethyl-N-formyl-leurosine, reference compound]
- MTD/min eff. D [1]: 4
- effect of a large single dose on the duration of life ([2]; large single dose): did not increase the duration of life

Structure (SMILES): CC[C@]12CN3CCc4c([nH]c5ccccc45)[C@@](C(=O)OC)(c4cc5c(cc4OC)N(C)[C@H]4[C@@](O)(C(=O)OC)[C@H](OC(C)=O)[C@]6(CC)C=CCN7CC[C@]54[C@@H]76)C[C@H](C3)[C@H]1O2 [leurosine]
- toxicity on the hematopoietic organs [3]: unreasonably high toxicity on the hematopoietic organs
- antitumor activity [4]: antitumor activity of leurosine has been proved on animals

Structure (SMILES): CCOCN1c2cc(OC)c(C3(C(=O)OC)CC4CN(CCc5c3[nH]c3ccccc53)CC(O)(CC)C4)cc2C23CCN4CC=CC(CC)(C(OC(C)=O)C(O)(C(=O)OC)C12)C43 (centres unmarked) [RGH-4451]
- paralytic symptoms [5]: entirely lacking
- single dose with a significant tumor-growth inhibition effect and prolongation of life [6]: 20 mg/kg
- MTD/min eff. D [7]: 10
- growth of P 388 tumor cells (in words) (P 388 tumor cells; 10^-1 μg./ml.): considerably inhibited
- inhibition at 0.1 µg/mL (P 388 tumor cells; 10^-1 μg./ml., after 24 hours): 43%
- inhibition at 0.1 µg/mL (P 388 tumor cells; 10^-1 μg./ml., after 48 hours): 89%
- in vitro toxicity, times less toxic than N-desmethyl-N-formyl-leurosine (P 388 tumor cells; in vitro, less toxic than N-desmethyl-N-formyl-leurosine): 4 times
- in vitro toxicity, times less toxic than vincristine (P 388 tumor cells; in vitro, less toxic than vincristine): 100 times
- decrease in the weight of spleen (S 180 sc. carcinoma): no substantial decrease in the weight of spleen
- LD50 of RGH-4451 as multiple of that of N-desmethyl-N-formyl-leurosine ([8]; i.p.): 2.5 times
- LD50 of RGH-4451 as multiple of that of vinblastine ([8]; i.p.): about 10 times
- LD50 of RGH-4451 as multiple of that of vincristine ([8]; i.p.): 17 fold
- paralytic symptoms accompanying death ([8]; lethal dose): not accompanied by paralytic symptoms
- LD50 ([8]; mouse, in vivo, ip): 70 mg/kg
- crippling of surviving animals ([8]; survivors, in contrast with vincristine): not crippled even temporarily
- Mean duration of life expressed in % of treated/control (NK/Ly ascites lymphoma; [9]): 181%
- Mean duration of life, treated (NK/Ly ascites lymphoma; [10]): 22.3 days
- Mean duration of life expressed in % of treated/control (NK/Ly ascites lymphoma; [11]): 163%
- Mean duration of life, treated (NK/Ly ascites lymphoma; [12]): 21.5 days
- Mean duration of life expressed in % of treated/control (NK/Ly ascites lymphoma; [13]): 166%
- Mean duration of life, treated (NK/Ly ascites lymphoma; [14]): 20.5 days
- Mean duration of life expressed in % of treated/control (NK/Ly ascites lymphoma; [15]): 208%
- Mean duration of life, treated (NK/Ly ascites lymphoma; [16]): 21.8 days
- tolerability of the large dose given every day (in words) (NK/Ly ascites lymphoma; 20 mg/kg every day, cannot be administered due to its toxicity): cannot be administered every
- Mean duration of life expressed in % of treated/control (NK/Ly ascites lymphoma; 20 mg/kg i.p., 1 treatment): 185%
- Mean duration of life, treated (NK/Ly ascites lymphoma; [17]): 19.4 days
- Mean duration of life expressed in % of treated/control (NK/Ly ascites lymphoma; [18]): 64%
- Mean duration of life, treated (NK/Ly ascites lymphoma; [19]): 8.5 days
- duration of life of the tumorous animals (in words) (NK/Ly ascites lymphoma; 3.2 to 6.4 mg/kg doses every day): considerably been prolonged
- effect on duration of life (in words) (NK/Ly ascites lymphoma; single 20 mg/kg dose): also effective
- Mean duration of life expressed in % of treated/control (P 388 leukemia; [9]): 181%
- Mean duration of life, treated (P 388 leukemia; [10]): 22.3 days
- Mean duration of life expressed in % of treated/control (P 388 leukemia; [11]): 163%
- Mean duration of life, treated (P 388 leukemia; [12]): 21.5 days
- Mean duration of life expressed in % of treated/control (P 388 leukemia; [13]): 166%
- Mean duration of life, treated (P 388 leukemia; [14]): 20.5 days
- Mean duration of life expressed in % of treated/control (P 388 leukemia; [15]): 208%
- Mean duration of life, treated (P 388 leukemia; [16]): 21.8 days
- Mean duration of life expressed in % of treated/control (P 388 leukemia; 20 mg/kg i.p., 1 treatment): 185%
- Mean duration of life, treated (P 388 leukemia; [17]): 19.4 days
- Mean duration of life expressed in % of treated/control (P 388 leukemia; [18]): 64%
- Mean duration of life, treated (P 388 leukemia; [19]): 8.5 days
- Mean duration of life expressed in % of treated/control ([2]; 1.0 mg/kg i.p., 9 treatments, every day): 15.4%
- Mean duration of life, treated ([2]; 1.0 mg/kg i.p., 9 treatments, every day, control 15.4 days): 54.2 days
- On the 65th day alive [2, 20]: 9/10
- On the 65th day tumor-free [2, 20]: 6/10
- Mean duration of life, treated ([2]; 2.0 mg/kg i.p., 9 treatments, every day, control 16.4 days, first part of table): 43.0 days
- Mean duration of life, treated ([2]; 2.0 mg/kg i.p., 9 treatments, every day, control 16.4 days, second part of table (65th day)): 64.1 days
- Mean duration of life expressed in % of treated/control ([2]; 2.0 mg/kg i.p., 9 treatments, every day, first part of table): 261%
- Mean duration of life expressed in % of treated*/control [2, 20]: 392%
- On the 65th day alive [2, 21]: 8/10
- On the 65th day tumor-free [2, 21]: 7/10
- Mean duration of life, treated ([2]; 4.0 mg/kg i.p., 9 treatments, every day, control 16.4 days, first part of table): 36.4 days
- Mean duration of life, treated ([2]; 4.0 mg/kg i.p., 9 treatments, every day, control 16.4 days, second part of table (65th day)): 62.9 days
- Mean duration of life expressed in % of treated/control ([2]; 4.0 mg/kg i.p., 9 treatments, every day, first part of table): 222%
- Mean duration of life expressed in % of treated*/control [2, 21]: 384%
- On the 65th day alive [2, 22]: 8/10
- On the 65th day tumor-free [2, 22]: 4/10
- Mean duration of life, treated ([2]; 6.0 mg/kg i.p., 9 treatments, every day, control 15.9 days, first part of table): 48.2 days
- Mean duration of life, treated ([2]; 6.0 mg/kg i.p., 9 treatments, every day, control 16.7 days, second part of table (65th day)): 65.8 days
- Mean duration of life expressed in % of treated/control ([2]; 6.0 mg/kg i.p., 9 treatments, every day, first part of table): 303%
- Mean duration of life expressed in % of treated*/control [2, 22]: 394%
- On the 65th day alive ([2]; 20 mg/kg i.p., 1 treatment): 8/10
- On the 65th day tumor-free ([2]; 20 mg/kg i.p., 1 treatment): 3/10
- Mean duration of life, treated ([2]; 20 mg/kg i.p., 1 treatment, control 16.7 days, second part of table (65th day)): 65.5 days
- Mean duration of life expressed in % of treated*/control ([2]; 20 mg/kg i.p., 1 treatment): 392%
- antitumor effect (in words) ([2]; 2 to 6 mg/kg once a day): remarkable antitumor effect
- proportion of treated animals tumor-free on the 65th day (in words) ([2]; 2 to 6 mg/kg once a day): a great part of the treated animals is tumor-free on the 65th day
- Mortality until the 22nd day/number of animals (Guerin sc. carcinoma; 2.0 mg/kg i.p.): 0/6
- Inhibition (Guerin sc. carcinoma; 2.0 mg/kg i.p.): 43
- Weight of tumor, treated (Guerin sc. carcinoma; 2.0 mg/kg i.p., control 18.9): 10.7
- Mortality until the 22nd day/number of animals (Guerin sc. carcinoma; 6.0 mg/kg i.p.): 0/6
- Inhibition (Guerin sc. carcinoma; 6.0 mg/kg i.p.): 81
- Weight of tumor, treated (Guerin sc. carcinoma; 6.0 mg/kg i.p., control 44.9): 8.69
- Mortality until the 22nd day/number of animals (Guerin sc. carcinoma; 10.0 mg/kg i.p.): 0/6
- Inhibition (Guerin sc. carcinoma; 10.0 mg/kg i.p.): 68
- Weight of tumor, treated (Guerin sc. carcinoma; 10.0 mg/kg i.p., control 44.9): 14.64
- Mortality until the 22nd day/number of animals (Guerin sc. carcinoma; 14.0 mg/kg i.p.): 5/6
- growth of Guerin carcinoma (in words) (Guerin sc. carcinoma; 2 to 10 mg/kg i.p. doses): strongly inhibited
